Reference: patent US20100068747A1, “Generic Assay for Monitoring Endocytosis” (Evotec Technologies GmbH, priority 2005, published 2010)
Entries after “also recorded” stand apart in the source; their conditions may differ.

Tests used:
U2OS/ETAR-GFP cells [1] = experiment: Lectin labeling of live cells, U2OS/ETAR-GFP; format: cell-based, human
[2] = tested on: CHO/PAR-2 cell membrane protein; experiment: Lectin blotting of PAR-2 membrane sample; format: binding
Protocol: (§1) Membrane preparation was conducted as follows: Cells were cultured in five T175 flasks until confluency. Confluent cells were detached by applying 3 ml of EDTA solution onto the PBS washed cells. Following a 20-minute incubation at 37° C. and 5% CO2, cells were resuspended in 12 ml of starvation medium (standard medium without FCS), counted, and centrifuged in a Heraeus Megafuge 1.0R at 133 rcf for 4 minutes. All subsequent steps were carried out on ice and with ice cold solutions. After unification of all pellet fractions, hypotonic lysis buffer was added to the cells at a ratio of 1 ml per 5*10^7 cells. Additionally, protease inhibitor cocktail was added to 50 μl per 5*10^7 cells. Cells were homogenized with 30 strokes in a 5 ml potter on ice, centrifuged at 4° C. and 917 rcf for 10 minutes, and the supernatant was stored in an ultracentrifuge tube on ice. The pellet fraction was homogenized and centrifuged once again as described above. The supernatants of both procedures were unified and centrifuged at 4° C. and 100,000 rcf for 45 minutes in a Sorvall ultra-centrifuge. The supernatant of this centrifugation procedure was withdrawn and the pellet dissolved in 0.5 ml or 1.0 ml modified SDS PAGE loading buffer containing Tris-HCl, SDS, glycerol, but no β-mercapto-ethanol or dyes and stored in small aliquots of 50 μl at −20° C.
(§2) SDS-Page of membrane samples was conducted as follows: Discontinuous 12% polyacrylamide gels were prepared according to a standard protocol. Broad range marker and 25 μg membrane protein were mixed 1:1 with loading buffer and loaded five times onto a mini gel in alternating order. The gels were run at U=100 V for the first 20 minutes. Subsequently, voltage was increased to U=150 V. The run was aborted as soon as the pyronin G band reached the end of the gel. For coomassie staining, gels were put in coomassie staining solution on a shaker at low revolutions for 45 min. The staining solution was removed and the gel incubated with destaining solution for one to two hours, exchanging the solution several times until the desired contrast was obtained.
Blotting of membrane samples was conducted as follows: For blotting, 3 mm packs of Whatman papers were extensively soaked in one of the diverging blotting buffers, AB I, AB II, and CB, and a pile was assembled in a semi-dry Trans-Blot 3D system from Bio-Rad as depicted in the sketch of FIG. 2. Hybond nitrocellulose membrane was submerged in AB II prior to assembly. To smooth out any air bubbles from the pile, a Pasteur pipette was rolled several times over the top layer. The apparatus was closed and ran at U=25 V for 45 minutes. Then, the pile was disassembled, the membrane submerged in Ponceau S solution and gently swayed for 2 minutes. For destaining, ddH2O was substituted for the staining solution, and the membrane was briefly rinsed twice. After drying under ambient conditions, the marker bands were marked with a ballpoint-pen. The membrane was cut into slices each displaying one marker and one sample lane.
Probing of membrane samples was conducted as follows: For classical western blotting, membranes were blocked in PBS containing 5% low fat dried milk powder. They were placed on a rotating shaker at low revolutions for 1 hour. Subsequently, membranes were sealed in plastic bags with blocking solution additionally containing 1 μg/ml anti-PAR-2 antibody (1:400) or 0.5 μg/ml of anti-ETAR antibody (1:500), depending on the respective recombinant cell type used for the sample. […]

[3] = tested on: CHO/ETAR cell membrane protein; experiment: Lectin blotting of ETAR membrane sample; format: binding
Protocol: as §1
as §2, with “obtained. […]” for “obtained.”

U2OS/ETAR-GFP cells [4] = experiment: Lectin labeling of fixed cells, U2OS/ETAR-GFP; format: cell-based, human; conditions: TRITC-lectin 10 nM and 20 nM
Protocol: Lectin labeling of fixed cells was conducted as follows: To detach confluent cells in order to prepare experiments for internalization studies, cells were always treated with EDTA solution instead of trypsin solution. For all seeding, washing, and labeling steps in 96-well plates a working volume of 100 μl per well was assessed. Cells were seeded out into a 96-well plate at different concentrations. U2OS/ETAR-GFP suspensions were adjusted to yield 2*10^4 cells/well, both of the CHO cell lines must be at 2.5*10^4 cells/well. Cells became confluent after 24 hours of incubation. In the following, they were washed with phosphate buffered saline (PBS) and fixed with 3% PFA for 20 minutes at RT. Then, cells were washed again with PBS and incubated in 10 nM and 20 nM solutions of each TRITC-lectin candidate in PBS, respectively. Again, cells were washed with PBS to remove excess lectin, and wells were refilled with PBS for analysis. For specificity controls, lectin solutions were incubated for 30 minutes prior to the application with an excess of the monosaccharide that represents the respective glyco-epitope.
(§3) The following microscopy and image analysis techniques were employed. When utilizing the epifluorescence microscope magnifications were adjusted according to the purpose of observation, e.g. single cell vs. cell collective. Concerning the filters U-MNU was used for Hoechst, U-MSWB for GFP, and U-N41007 for TRITC detection. Hoechst images were taken at 50 ms exposure time, GFP images at 100 to 200 ms and TRITC images needed 500 to 1000 ms. Overlay images were assembled with AnalySIS and tuned in color intensity to obtain the desired color contrast. Images taken to compare two experimental conditions, e.g. control vs. stimulus, featured identical exposure parameters. If possible, well areas were chosen that reflect similar states of confluence. Utilizing the Opera confocal fluorescence imager, the instrument was calibrated running standard methods for skew cropping (spatial camera alignments) and camera intensity normalization.

CHO/ETAR cells = experiment: Lectin labeling of live cells, CHO/ETAR; format: cell-based; conditions: TRITC-lectin, 10 nM at maximum
Protocol: Lectin labeling of live cells was conducted as follows: Cells were seeded as described above. After 24 hours cells were washed once with PBS and incubated in the incubator for another 2 hours in the respective standard medium without serum supplement to deprive them of serum factor mediated stimuli. This step was termed starvation period. Subsequently, cells were washed gently with PBS and incubated with 37° C. tempered assay medium comprised of Hank's Balanced Salt Solution (HBSS) pH 7.4, containing 20 mM HEPES and 30 mM D-glucose. The plate was left at RT for 30 minutes to slowly level its temperature and, thus, avoid capturing of temperature drop induced membrane dynamics. This period was termed leveling period. Then, assay medium was withdrawn and wells refilled with TRITC-lectin solutions at RT to start cell labeling. Several lectin concentrations in the low nano-molar range were tested. Molar concentrations were calculated from the data provided by Vector Labs. The plate was placed on a rotating shaker at low revolutions for 10 minutes while incubating. The start of the lectin incubation is referred to as assay starting point with t=0 min. After the 10 min incubation period the cells were gently washed with PBS and wells refilled with assay buffer at RT. Instantly thereafter, fluorescence signals were monitored predominately using the epifluorescence microscope.
as §3

## succinylated Triticum vulgaris (wheat germ) agglutin [sWGA]
U2OS/ETAR-GFP cells [1]; pH 6.8, U2OS cells
  delay in spot formation: 20 min
U2OS/ETAR-GFP cells [1]; pH 8.0, U2OS cells
  spot formation at increased pH: accelerated
[2]; PAR-2 sample
  striking bands below 35 kDa: at least nine
[2]; biotinylated lectin 5 μg/ml
  band at the same height as the western band (55 kDa, anti-PAR-2): one at the same height as the western band; also recorded: intense band
[2]; biotinylated lectin 5 μg/ml, exposure one to five minutes
  bands detected above 35 kDa: two
[3]; ETAR sample
  bands that stood out below 35 kDa: five
[3]; biotinylated lectin 5 μg/ml
  band at the same height as in the western (47 kDa, anti-ETAR): very faint band
U2OS/ETAR-GFP cells [4]
  Staining of U2OS/ETAR-GFP: extensive fluorescence was observed at the cell surface
CHO/ETAR cells
  Live cell staining of CHO/ETAR: single spot formation continued fairly slowly
